We go through 16 compounds from patent US12187713B2, “Immunomodulators, compositions and methods thereof” (Betta Pharmaceuticals Co., Ltd, priority 2019, dated 2025).

Each structure is given as a SMILES string.

What is called IC50 is the midpoint of a concentration-inhibition curve.

Series [1] can be described thus: Pharmacokinetic Assay, single oral dose 5 mg/kg (Table 12). The class given is in vivo. Particulars: mouse, plasma concentration, C57 female mice, single oral dose 5 mg/kg. How it is done:
Adult C57 female mice were received to single-dose of the test compounds with 15% DMSO, 10% Kolliphor^@HS 15 and 75% saline as excipients, the mice (n=3) were giving oral administration (intragastric administration) with the compounds at a dose of 5 mg/kg. Time of blood collection: 30 min, 2 h, 4 h. approximately 0.1 mL of whole blood was collected from retro-orbital venous plexus, and placed into tubes that contained K2-EDTA as an anticoagulant. The whole blood were centrifuged at 4° C. and 4000 rpm for 10 min. The plasma was transferred into centrifuge tubes, and stored at −20° C. until being analyzed. Concentrations of test compounds in the plasma samples were analyzed with liquid chromatography-tandem mass spectrometry (LC-MS/MS). Plasma concentration-time data of individual animals was analyzed using Microsoft Excel 2010.

The next series has as its target PD-1/PD-L1 (Homo sapiens (Human), UniProt Q9NZQ7). Nature of the series: PD-1/PD-L1 Binding Assay (Alphascreen). In short, it runs like this: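 PD-1/PD-L1 binding detected by anti-6×His acceptor and streptavidin donor beads after 120 min in the dark at 25 °C. Beforehand, the two proteins were incubated 15 min at 25 °C with inhibitor at 0.015–300 nM (1% DMSO). IC50 comes from a log concentration–response curve.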
In general terms: Bead proximity is the source of the signal in Alpha formats.

Chain of PD-1/PD-L1 (Q9NZQ7 19-238): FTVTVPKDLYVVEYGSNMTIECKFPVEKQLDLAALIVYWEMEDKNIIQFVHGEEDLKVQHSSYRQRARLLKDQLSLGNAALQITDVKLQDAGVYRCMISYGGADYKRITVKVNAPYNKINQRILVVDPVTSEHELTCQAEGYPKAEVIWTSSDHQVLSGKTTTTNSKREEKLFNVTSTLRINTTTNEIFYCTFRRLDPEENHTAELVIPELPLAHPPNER

Regarding `Cc1c(-c2nc3c(o2)CCN(CCCC(F)(F)F)C3)cccc1-c1cccc(-c2nc3cc(CN4CCC[C@H]4C(=O)O)c(OC(F)F)cc3o2)c1C` [Example 191, ((6-(difluoromethoxy)-2-(2,2′-dimethyl-3′-(5-(4,4,4-trifluorobutyl)-4,5,6,7-tetrahydrooxazolo[4,5-c]pyridin-2-yl)-[1,1′-biphenyl]-3-yl)benzo[d]oxazol-5-yl)methyl)proline], in series [1], the concentration at 0.5 h turned out to be 520 ng/mL, the concentration at 2 h stood at 1170 ng/mL and the concentration at 4 h turned out to be 1330 ng/mL. For the same compound, at PD-1/PD-L1 (range symbols), the IC50 fell in the range of 5 to 50 nM.
For `Cc1c(-c2nc3c(o2)CCN(CC2CCO2)C3)cccc1-c1cccc(-c2nc3cc(CN4CCC[C@H]4C(=O)O)c(OC(F)F)cc3o2)c1C` (stereo partly shown) [Example 192, ((6-(difluoromethoxy)-2-(2,2′-dimethyl-3′-(5-(oxetan-2-ylmethyl)-4,5,6,7-tetrahydrooxazolo[4,5-c]pyridin-2-yl)-[1,1′-biphenyl]-3-yl)benzo[d]oxazol-5-yl)methyl)proline], in series [1], the concentration at 0.5 h is 469 ng/mL, the concentration at 2 h worked out at 440 ng/mL and the concentration at 4 h worked out at 268 ng/mL. Further, the IC50 on PD-1/PD-L1 (range symbols) fell in the range of 5 to 50 nM.
In series [1], `Cc1c(-c2nc3c(o2)CCN(CC#N)C3)cccc1-c1cccc(-c2nc3cc(CN4CCC[C@H]4C(=O)O)c(OC(F)F)cc3o2)c1C` [Example 195, ((2-(3′-(5-(cyanomethyl)-4,5,6,7-tetrahydrooxazolo[4,5-c]pyridin-2-yl)-2,2′-dimethyl-[1,1′-biphenyl]-3-yl)-6-(difluoromethoxy)benzo[d]oxazol-5-yl)methyl)proline] had a concentration at 0.5 h of 256 ng/mL, a concentration at 2 h of 255 ng/mL and a concentration at 4 h of 125 ng/mL. This compound also registered a 50% inhibitory concentration (IC50) at PD-1/PD-L1 (range symbols) of 5 to 50 nM.
The corresponding values for `CCS(=O)(=O)N1CCc2oc(-c3cccc(-c4cccc(-c5nc6cc(CN7CCC[C@H]7C(=O)O)c(OC(F)F)cc6o5)c4C)c3C)nc2C1` [Example 197, ((6-(difluoromethoxy)-2-(3′-(5-(ethylsulfonyl)-4,5,6,7-tetrahydrooxazolo[4,5-c]pyridin-2-yl)-2,2′-dimethyl-[1,1′-biphenyl]-3-yl)benzo[d]oxazol-5-yl)methyl)proline] are 527 ng/mL, 741 ng/mL, 369 ng/mL and 5 to 50 nM.
Consider `Cc1c(-c2nc3c(o2)CCN(CCC(F)(F)F)C3)cccc1-c1cccc(-c2nc3cc(CN4CCC[C@H]4C(=O)O)c(OC(F)F)cc3o2)c1C` [Example 198, ((6-(difluoromethoxy)-2-(2,2′-dimethyl-3′-(5-(3,3,3-trifluoropropyl)-4,5,6,7-tetrahydrooxazolo[4,5-c]pyridin-2-yl)-[1,1′-biphenyl]-3-yl)benzo[d]oxazol-5-yl)methyl)proline], for which, in series [1], the concentration at 0.5 h was determined as 674 ng/mL, the concentration at 2 h came out at 1440 ng/mL and the concentration at 4 h amounted to 1100 ng/mL. On PD-1/PD-L1 (range symbols), this compound had a half-inhibitory concentration (IC50) above 50 nM.
For `Cc1c(-c2nc3c(o2)CCN(CC(F)F)C3)cccc1-c1cccc(-c2nc3cc(CN4CCC[C@H]4C(=O)O)c(OC(F)F)cc3o2)c1C` [Example 201, ((2-(3′-(5-(2,2-difluoroethyl)-4,5,6,7-tetrahydrooxazolo[4,5-c]pyridin-2-yl)-2,2′-dimethyl-[1,1′-biphenyl]-3-yl)-6-(difluoromethoxy)benzo[d]oxazol-5-yl)methyl)proline] the same measures were 428 ng/mL, 792 ng/mL, 527 ng/mL and above 50 nM.
In the case of `Cc1c(-c2nc3c(o2)CCOC3)cccc1-c1cccc(-c2nc3cc(CN4CCC[C@H]4C(=O)O)c(OC(F)F)cc3o2)c1C` [Example 203, ((6-(difluoromethoxy)-2-(3′-(6,7-dihydro-4H-pyrano[3,4-d]oxazol-2-yl)-2,2′-dimethyl-[1,1′-biphenyl]-3-yl)benzo[d]oxazol-5-yl)methyl)proline], in series [1], the concentration at 0.5 h came to 819 ng/mL, the concentration at 2 h came out at 1030 ng/mL and the concentration at 4 h is 833 ng/mL. Also, the 50% inhibitory concentration (IC50) on PD-1/PD-L1 (numeric values) turned out to be 12 nM.
On to `Cc1c(-c2nc3c(o2)CCC3)cccc1-c1cccc(-c2nc3cc(CN4CCC[C@H]4C(=O)O)c(OC(F)F)cc3o2)c1C` [Example 204, ((6-(difluoromethoxy)-2-(3′-(5,6-dihydro-4H-cyclopenta[d]oxazol-2-yl)-2,2′-dimethyl-[1,1′-biphenyl]-3-yl)benzo[d]oxazol-5-yl)methyl)proline], for which, in series [1], the concentration at 0.5 h came to 740 ng/mL, the concentration at 2 h is 872 ng/mL and the concentration at 4 h stood at 820 ng/mL. On PD-1/PD-L1 (range symbols), this compound registered a half-inhibitory concentration (IC50) of 0.1 to 5 nM.
In series [1], `Cc1c(-c2nc3c(o2)CCCC3)cccc1-c1cccc(-c2nc3cc(CN4CCC[C@H]4C(=O)O)c(OC(F)F)cc3o2)c1C` [Example 205, ((6-(difluoromethoxy)-2-(2,2′-dimethyl-3′-(4,5,6,7-tetrahydrobenzo[d]oxazol-2-yl)-[1,1′-biphenyl]-3-yl)benzo[d]oxazol-5-yl)methyl)proline] returned a concentration at 0.5 h of 1000 ng/mL, a concentration at 2 h of 1440 ng/mL and a concentration at 4 h of 1420 ng/mL. At PD-1/PD-L1 (range symbols), this compound had a 50% inhibitory concentration (IC50) of 0.1 to 5 nM.
In series [1], `Cc1c(COc2cc(OCc3cncc(OC(F)F)c3)c(CN3CCC(F)C3)cc2Cl)cccc1-c1cccc(-c2nc3cc(CN4CCC[C@H]4C(=O)O)c(OC(F)F)cc3o2)c1C` (stereo partly drawn) [Example 209, ((2-(3′-((2-chloro-5-((5-(difluoromethoxy)pyridin-3-yl)methoxy)-4-((3-fluoropyrrolidin-1-yl)methyl)phenoxy)methyl)-2,2′-dimethyl-[1,1′-biphenyl]-3-yl)-6-(difluoromethoxy)benzo[d]oxazol-5-yl)methyl)-L-proline] showed a concentration at 0.5 h of 21.4 ng/mL, a concentration at 2 h of 54.9 ng/mL and a concentration at 4 h of 19.2 ng/mL. At PD-1/PD-L1 (numeric values), this compound yielded an IC50 of 1.4 nM.
The corresponding values for `COC1CCN(Cc2ccc(-c3cccc(-c4cccc(-c5nc6cc(CN7CCC[C@H]7C(=O)O)c(OC(F)F)cc6o5)c4C)c3C)cc2)C1` (stereo partly drawn) [Example 227, ((6-(difluoromethoxy)-2-(4″-((3-methoxypyrrolidin-1-yl)methyl)-2,2′-dimethyl-[1,1′:3′,1″-terphenyl]-3-yl)benzo[d]oxazol-5-yl)methyl)-L-proline] are 36.9 ng/mL, 149 ng/mL, 114 ng/mL and 4.1 nM.
The corresponding values for `Cc1c(-c2nc3cc(CN4CCC[C@H]4C(=O)O)c(OC(F)F)cc3o2)cccc1-c1cccc(-c2ccc(CN3CCCC3)cc2Cl)c1C` [Example 231, ((2-(2″-chloro-2,2′-dimethyl-4″-(pyrrolidin-1-ylmethyl)-[1,1′:3′,1″-terphenyl]-3-yl)-6-(difluoromethoxy)benzo[d]oxazol-5-yl)methyl)-L-proline] are 36.9 ng/mL, 160 ng/mL, 156 ng/mL and 78 nM.
In series [1], `Cc1c(-c2ccc(CN3CCCC3)c(C(F)(F)F)c2)cccc1-c1cccc(-c2nc3cc(CN4CCC[C@H]4C(=O)O)c(OC(F)F)cc3o2)c1C` [Example 233, ((6-(difluoromethoxy)-2-(2,2′-dimethyl-4″- (pyrrolidin-1-ylmethyl)-3″-(trifluoromethyl)-[1,1′:3′,1″-terphenyl]-3-yl)benzo[d]oxazol-5-yl)methyl)-L-proline] had a concentration at 0.5 h of 143 ng/mL, a concentration at 2 h of 322 ng/mL and a concentration at 4 h of 296 ng/mL. The compound also gave an IC50 at PD-1/PD-L1 (numeric values) of 41 nM.
For `Cc1c(-c2ccc(CN3CC(C)(C)C3)c(F)c2)cccc1-c1cccc(-c2nc3cc(CN4CCC[C@H]4C(=O)O)c(OC(F)F)cc3o2)c1C` [Example 237, ((6-(difluoromethoxy)-2-(4″-((3,3-dimethylazetidin-1-yl)methyl)-3″-fluoro-2,2′-dimethyl-[1,1′:3′,1″-terphenyl]-3-yl)benzo[d]oxazol-5-yl)methyl)-L-proline] the same measures were 58.5 ng/mL, 178 ng/mL, 186 ng/mL and 2.7 nM.
In series [1], `Cc1c(-c2ccc(CN3Cc4ccccc4C3)c(F)c2)cccc1-c1cccc(-c2nc3cc(CN4CCC[C@H]4C(=O)O)c(OC(F)F)cc3o2)c1C` [Example 241, ((6-(difluoromethoxy)-2-(3″-fluoro-4″- (isoindolin-2-ylmethyl)-2,2′-dimethyl-[1,1′:3′,1″-terphenyl]-3-yl)benzo[d]oxazol-5-yl)methyl)proline] yielded a concentration at 0.5 h of 102 ng/mL, a concentration at 2 h of 234 ng/mL and a concentration at 4 h of 294 ng/mL. For the same compound, the IC50 at PD-1/PD-L1 (range symbols) is 5 to 50 nM.
The corresponding values for `Cc1c(-c2ccc(CN3CCC(F)C3)cc2)cccc1-c1cccc(-c2nc3cc(CN4CCC[C@H]4C(=O)O)c(OC(F)F)cc3o2)c1C` (stereo partly shown) [Example 242, ((6-(difluoromethoxy)-2-(4″-((3-fluoropyrrolidin-1-yl)methyl)-2,2′-dimethyl-[1,1′:3′,1″-terphenyl]-3-yl)benzo[d]oxazol-5-yl)methyl)proline] are 90.4 ng/mL, 223 ng/mL, 202 ng/mL and 0.1 to 5 nM.
